Columns and labels:
adenocarcinoma = assay: Adenocarcinoma, intravenous administration four times; format: in vivo, mice; details: 5 mg/kg intravenous four times
Source text: 2. Antitumor Activity for Adenocarcinoma and Intra-Venous Administration (Four Times in Physiological Saline Solution)

leukemia L-1210 = assay: Leukemia L-1210 survival; format: in vivo, mice
Protocol: (§1) The therapeutic efficacy was investigated on the leukemia tumor strains L-1210, P-388, and P-388 strains specifically obtained for drug resistance. The lifespan of the animals was set at 60 days in this case. Drug-resistant tumor were obtained by successive transplantation of the leukemia P-388 with ascites cells taken from mice which had been treated with rubomycin (strain P388/ph), vincristine (P388/vcr) and zisplatin (P388/cPt).
Inoculum: 10^6 cells in 0.2 ml of physiological saline solution. Mice: BDF1, females 19-21 g. The products were administered intraabdominally.
(§2) After transplantation of the tumor, the substance MOC.melphalan was administered intraabdominally to the animals in a dosage of 5 mg/kg in 0.3 ml of 10% Twin-80 solution on days 1 to 7. The effect of the substance was assessed on the basis of the lifespan and the weight change of the animals (table 9). The observation period was 60 days.

leukemia P-388 [1] = assay: Leukemia P-388 survival (original strain); format: in vivo, mice
Protocol: as §1
Inoculum: 10^6 cells in 0.2 ml of physiological saline solution. Mice: BDF1. Females 19-21 g
as §2, with “7).” for “9). The observation period was 60 days.”
(§3) The products were administered intraabdominally. Cu(acac)2M was dissolved in 10% Twin 80.

P388/vcr = assay: Drug-resistant leukemia P388/vcr (vincristine-resistant) survival; format: in vivo, mice; details: 5 mg/kg, days 1-7
Source text: as §1
(§4) Resistance to the products mentioned appear in the 8th, 6th and 4th generation.
as §3

P388/cPt = assay: Drug-resistant leukemia P388/cPt (cisplatin-resistant) survival; format: in vivo, mice; details: 5 mg/kg, days 1-7
Source text: as §1, §4, §3

[2] = tested on: drug-resistant leukemia P-388 tumors; details: rubomycin-, vincristine-, cisplatin-resistant P-388
Source text: The drug-resistant tumors were obtained by administration of ascites cells leukemia P-388 which were derived from mice treated with rubomycin, vincristine and cisplatin.

S-180 sarcoma tumor = assay: S-180 sarcoma in white crossbred mice (Example 7); format: in vivo; details: day 21
Protocol: After transplantation of the S-180 sarcoma tumor into white crossbred mice, the animals received the substance MOC.melphalan by intraabdominal administration in a dosage of 1 mg/kg in 0.3 ml of 10% DMSO solution on days 3, 5 and 9. The animals were sacrificed on day 21 of the investigation and underwent histological, morphological examination (table 11).
(§5) After transplantation of the S-180 sarcoma tumor into white crossbred mice, the animals received MOC.melphalan and melphalan by intraabdominal administration in a dosage of 5 mg/kg in 0.3 ml of 10% DMSO solution on days 3, 5, 7 and 9. The animals were sacrificed on day 21 of the investigation and underwent histological, morphological examination (table 12).
as §5, with “2, 4, 6, 8” for “3, 5, 7”, “10.” for “9.”, “13).” for “12).”

[3] = tested on: tumor cell cultures (KML); assay: Suppression of cell proliferation in tumor cell cultures (KML); format: cell-based, mice; details: incubation 24 hours
Protocol: The effect of the substances MOC.melphalan and MOC.tegafur of the invention on the proliferative activity, morphology and protein synthesis was investigated on tumor cell cultures (KML). This took place with the mice separated out of the melanoma-16 line. 80 000 cells/ml were distributed in 3 ml of DMEM with the addition of embryonic calf serum, 200 μ/mol of glutamine and antibiotic. After cultivation of the cells at a temperature of 37° C. for 24 hours (logarithmic cell growth phase), the MOC substances were added in the concentration of 10 and 100 μg/ml. After incubation for 24 hours, the number of live cells was determined. In parallel, the fixed specimens of the cells were prepared for morphological analysis.

[4] = tested on: tumor cell cultures (KML); assay: Protein synthesis: inclusion of 3H-amino acids in tumor cell cultures; format: cell-based, mice; details: 50 μg/ml, incubation 24 hours
Protocol: The effect of the substances on protein synthesis is determined with the aid of the suppression stage through the inclusion of radioactive precursors of amino acids (totaled mixture of ^3H-amino acids). 1 million cells in a “log phase” were selected for this. The complexes were introduced in a dosage of 50 μg/ml and, in parallel, the amino acids with an activity of 10 mCi/ml were introduced into 10 ml bottles. After incubation for 24 hours, the cells were washed out from the cultivation nutrient medium, and a lysis (disruption) was carried out. The radioactivity of the proteins was determined in a […] (table 25).

Hydrolysis stability = format: physicochemical; details: for period of stability (no hydrolysis): 20° C.
Protocol: 0.6 g of (C5H7O2)2—Cu—C13H18Cl2N2O2 was dispersed in 100 ml of water or physiological saline solution with the aid of an ultrasound generator (frequency: 15 kHz, 10 minutes).
0.6 g of (C5H7O2)2—Cu—C13H18Cl2N2O2 was dispersed in 100 ml of 100% olive oil with the aid of an ultrasound generator (frequency: 15 kHz, 10 minutes).
0.1 g of (C5H7O2)2—Cu—C13H18Cl2N2O2 was dispersed in 100 ml of linoleic acid or linolenic acid with the aid of an ultrasound generator (frequency: 15 kHz, 10 minutes).

leukemia P-388 [5] = assay: Leukemia P-388 survival (original strain); format: in vivo, mice; remark: listed apart in the source
[6] = Solubility and stability in air
[7] = 5 mg/kg intraabdominal days 1-7

CC(=O)C=C(C)[O-].CC(=O)C=C(C)[O-].NC(Cc1ccc(N(CCCl)CCCl)cc1)C(=O)O.[Cu+2] (stereo not shown) [MOC.melphalan, (C5H7O2)2—Cu—C13H18Cl2N2O2]
% inhibition (adenocarcinoma): 80%
Mass of the tumor (adenocarcinoma; control 4.4): 0.9 g
Change in weight (leukemia L-1210; [7]): -1.5 g
% of surviving animals (leukemia L-1210; 5 mg/kg intraabdominal days 1-7, 60 days observation): 100%
Lifespan of the animals in the experiment (leukemia L-1210; 5 mg/kg intraabdominal days 1-7, control 8.5): >60 days
Change in weight (leukemia P-388 [1]; [7]): -2.5 g
Increase in average lifespan (leukemia P-388 [1]; [7]): 56.0%
Number of animals which survived to day 60 (leukemia P-388 [1]; 5 mg/kg intraabdominal days 1-7, 6 animals): 0
Average lifespan (leukemia P-388 [1]; 5 mg/kg intraabdominal days 1-7, control 10.8): 16.8 days
ILS % (leukemia P-388 [1]; 5 mg/kg, days 1-7): 56%
ILS % (P388/vcr): 516%
Number of surviving animals/number of animals in group (P388/vcr): 5/6
ILS % (P388/cPt): 193%
sensitivity of the resistant tumors reduced [2]: 4-5 fold
Percentage inhibition (S-180 sarcoma tumor; 1 mg/kg intraabdominal days 3, 5, 9): 100%
Percentage inhibition (S-180 sarcoma tumor; 5 mg/kg intraabdominal days 2, 4, 6, 8, 10): 49%
Average tumor mass (S-180 sarcoma tumor; 5 mg/kg intraabdominal days 2, 4, 6, 8, 10, control 3.9 ± 0.5): 2.0 ± 0.7 g
Percentage inhibition (S-180 sarcoma tumor; 5 mg/kg intraabdominal days 3, 5, 7, 9): 100%
Suppression of growth cells ([3]; 10 μg/ml): 30%
Suppression of growth cells ([3]; 100 μg/ml): 95%
Suppression of amino acid inclusion [4]: 59%
period of stability (Hydrolysis stability; 0.1 g in 100 ml of linoleic acid or linolenic acid, 20° C. in air): 1 year
period of stability (no hydrolysis) (Hydrolysis stability; 0.6 g in 100 ml of 100% olive oil): more than 2 years
period of stability (no hydrolysis) (Hydrolysis stability; 0.6 g in 100 ml of water or physiological saline solution): 30 days
ILS % (leukemia P-388 [5]; 10 mg/kg, days 1, 5, 9): 419%
Number of surviving animals/number of animals in group (leukemia P-388 [5]; 10 mg/kg, days 1, 5, 9): 5/6
ILS % (leukemia P-388 [5]; 10 mg/kg, days 1, 7): 465%
Number of surviving animals/number of animals in group (leukemia P-388 [5]; 10 mg/kg, days 1, 7): 4/6
ILS % (leukemia P-388 [5]; 15 mg/kg, days 1, 7): 447%
Number of surviving animals/number of animals in group (leukemia P-388 [5]; 15 mg/kg, days 1, 7): 5/6
solubility in water [6]: poor solubility
